Some test systems named below: PC-3; M14; LOX IMVI; RXF 393; SF-539; HOP-92; MCF7; MDA-MB-435; 786-0; MOLT-4; Hs-578T; K562; COLO 205; SW-620; BT-549; NCI-H23; SK-OV-3; IGROV-1; SN12C; HCC 2998.
Common to all, as to assay: inhibition of tumour cell growth, NCI panel, 48 h

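Five compound concentrations were applied to cells in 96-well plates for 48 hours; endpoints were derived by simple linear interpolation of the resulting dose-response curve. Here, GI50 denotes the concentration required for 50% inhibition of growth.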 The source made the active and inactive calls. No stated cut-off is given here; in the data, active = GI50 up to about 1.1 µM and inactive = higher.

For the molecule `CC(=O)C(C(c1ccccc1)N1CCOCC1)N1CCOCC1` (stereo not given), the GI50 in the assay on PC-3, in the assay with M14, in the assay on LOX IMVI, in the assay with RXF 393, with SF-539 and with HOP-92 was > 100 µM (inactive) in each case. Further, the GI50 in the assay on MCF7, in the assay on MDA-MB-435, in the assay with 786-0, in the assay with MOLT-4, with Hs-578T and in the assay with K562 was > 100 µM (inactive) each time. Besides, the GI50 in the assay with COLO 205, in the assay with SW-620, in the assay on BT-549, with NCI-H23, with SK-OV-3 and in the assay with IGROV-1 was > 100 µM (inactive) throughout. Also, the GI50 was > 100 µM (inactive) in the assay on SN12C and 20.3 µM (inactive) in the assay on HCC 2998.

Take `COC(=O)[C@@H]1C=CCN1S(=O)(=O)c1ccc(C)cc1`: the GI50 in the assay with PC-3 is > 100 µM (inactive); with M14, 48.1 µM (inactive); in the assay with LOX IMVI it was > 100 µM (inactive); with RXF 393 it was 50.5 µM (inactive); with SF-539, 60.1 µM (inactive); with HOP-92, 55.5 µM (inactive). The GI50 in the assay with MCF7 was > 100 µM (inactive); with MDA-MB-435, 13.2 µM (inactive); in the assay on 786-0, 32.9 µM (inactive); with MOLT-4, 37.4 µM (inactive); in the assay with Hs-578T, > 100 µM (inactive); in the assay with K562, 31.9 µM (inactive). For the same molecule, the GI50 in the assay with COLO 205, in the assay on SW-620, in the assay on BT-549, in the assay on NCI-H23, with SK-OV-3 and with IGROV-1 was > 100 µM (inactive) in each case. The GI50 is > 100 µM (inactive) in the assay with SN12C and 70.6 µM (inactive) with HCC 2998.

`C=C1C(=O)O[C@H]2C/C(C)=C/CC/C(C)=C/CC[C@@](C)(O)[C@@H](I)C[C@@H]12`: the GI50 is 8.26 µM (inactive) in the assay with PC-3; 9.64 µM (inactive) in the assay with M14; 0.234 µM (active) in the assay with LOX IMVI; 3.84 µM (inactive) in the assay with RXF 393; 4 µM (inactive) in the assay on SF-539; 2.34 µM (inactive) in the assay with HOP-92. Moreover, the GI50 in the assay on MCF7 is 5.57 µM (inactive); in the assay on MDA-MB-435 it was 4.6 µM (inactive); in the assay on 786-0, 3 µM (inactive); with MOLT-4, 2.37 µM (inactive); in the assay with Hs-578T it was 5.79 µM (inactive); in the assay on K562, 2.94 µM (inactive). Further, the GI50 was 9.44 µM (inactive) in the assay with COLO 205; 4.25 µM (inactive) in the assay on SW-620; 1.13 µM (inactive) with BT-549; 0.0501 µM (active) with NCI-H23; 16 µM (inactive) in the assay with SK-OV-3; 3.15 µM (inactive) in the assay with IGROV-1. The GI50 in the assay on SN12C is 5.06 µM (inactive); in the assay on HCC 2998, 12.5 µM (inactive).

In the case of `CC1(C)C(CBr)=[N+]([O-])C(C)(C)N1O`, the GI50 in the assay on PC-3 was > 10 µM (inactive); with M14 it was 2.37 µM (inactive); in the assay on LOX IMVI it was 3.7 µM (inactive); with RXF 393, 3.31 µM (inactive); in the assay with SF-539, > 5.38 µM (inactive); with HOP-92, 2.27 µM (inactive). In addition, the GI50 is 4.91 µM (inactive) with MCF7; 4.03 µM (inactive) with MDA-MB-435; 5.71 µM (inactive) in the assay with 786-0; 2.57 µM (inactive) in the assay with MOLT-4; > 10 µM (inactive) in the assay with Hs-578T; > 4.93 µM (inactive) in the assay with K562. The GI50 with COLO 205 was 1.83 µM (inactive); in the assay on SW-620, 2.25 µM (inactive); in the assay with BT-549, 2.64 µM (inactive); in the assay on NCI-H23, 3.59 µM (inactive); in the assay on SK-OV-3, > 10 µM (inactive); in the assay on IGROV-1, > 6.31 µM (inactive). The figures for the GI50 in the assay on SN12C and in the assay with HCC 2998 were 4.04 µM (inactive) and > 10 µM (inactive), respectively.
